# Source: patent US11161818B2, “Quinolone derivatives, preparation methods and application thereof” (Hangzhou Normal University, priority 2019, dated 2021)
# Structures can show the parent of a compound that is named as a salt.
# Experiments:
# [1] = system: S. aureus; experiment: Bactericidal activity test, filter paper inhibition zone; type: cell-based, Staphylococcus aureus; details: filter paper diameter 6 mm, 37° C., 24 hours; for S. aureus inhibition zone: sample concentration 10 mg/mL
# Method: (§1) In order to determine the practicability of the compounds synthesized in this patent, some of the compounds are selected as representatives, and the bactericidal activity is determined by conventional methods. The specific operation procedures are as follows:
# (§2) In a super clean bench, the preserved strains are transferred to a slant tube, cultured in an incubator at 37° C. for 24 hours, and then taken out and preserved at low temperature for antibacterial experiments. The well-grown colonies are scraped and transferred into a liquid medium with the inoculation ring, shaken to give a uniform mixture, and cultured in the incubator at 37° C. for 24 hours. The culture medium is poured into plates, about 15 ml for each plate, which are placed horizontally, and after solidification, placed upside down into the incubator at 37° C.; after two days, it is observed whether there is colony growth. If not, it can be used for the next experiment, otherwise, the plate needs to be poured again. 0.5 ml of bacterial suspension is pipetted into the plate, which is left to stand still for about 5 minutes, and then spread evenly with a coating rod; two duplicate plates are set for each kind of bacteria. In the super clean bench, the plates are divided equally and parallel groups are set. Each piece of filter paper (6 mm in diameter) is a paste. The filter paper is picked up with tweezers, dipped into a sample, taken out, placed at a given position of the plate, and gently pressed to make the filter paper firmly adhered thereto. The plate is placed (upside down) in the incubator for culture; the temperature is set at 37° C.; and after 24 hours culture, the plate is observed and the results are recorded.
# [2] = system: E. coli; experiment: as above; type: cell-based; details: filter paper diameter 6 mm, 37° C., 24 hours; for E. coli activity inhibition zone: sample concentration 10 mg/mL
# Method: as §1, §2
# [3] = system: MRSA (methicillin-resistant Staphylococcus aureus); experiment: as above; type: cell-based; details: filter paper diameter 6 mm, 37° C., 24 hours; for MRSA inhibition zone: sample concentration 10 mg/mL
# Method: as §1, §2
# [4] = system: B. subtilis; experiment: as above; type: cell-based, Bacillus subtilis; details: filter paper diameter 6 mm, 37° C., 24 hours; for B. subtilis inhibition zone: sample concentration 10 mg/mL
# Method: as §1, §2
# [5] = system: lung cancer cells (A549); experiment: Anti-tumor activity test, MTT method; type: cell-based; details: concentration 0.5 mg/ml (DMSO as solvent), 44 + 4 hours culture
# Method: (§3) For the anti-tumor activity test of these compounds, three kinds of common tumor cells are taken as research subjects: non-small cell lung cancer cells (HCC827), lung cancer cells (A549) and liver cancer cells (HepG2). Under the action of the new quinolone derivatives, the growth of the cells is observed, and the proliferation of tumor cells is measured by MTT method. The specific operation is as follows: the tumor cells are inoculated into 96-well culture plate in a particular amount of cells, with a cell density of 2×10^4 cells/ml; after overnight in the incubator with a concentration of 5% CO2 at 37° C., the screened samples are added (reference can be made to Table 1 for sample concentration; 10 μL/well of corresponding concentration of drugs are added to the dosing group, while 10 μL/well of PBS are added to the control group). After 44 hours of culture, 10 μL/well of MTT are added to continue the culture for 4 hours, which is dissolved with DMSO, shaken, and detected with a 570 nm enzyme-labeled instrument.
# [6] = system: non-small cell lung cancer cells (HCC827); experiment: Anti-tumor activity test, MTT method; type: cell-based; details: concentration 0.5 mg/ml (DMSO as solvent), 44 + 4 hours culture
# Method: as §3
# [7] = system: liver cancer cells (HepG2); experiment: Anti-tumor activity test, MTT method; type: cell-based, human; details: concentration 0.5 mg/ml (DMSO as solvent), 44 + 4 hours culture
# Method: as §3
SMILES,S. aureus inhibition zone [1],E. coli activity inhibition zone [2],MRSA inhibition zone [3],B. subtilis inhibition zone [4],other results
"CCOC(=O)c1cn(-c2ccc(Oc3ccc(Cl)cc3)cc2)c2cc(Cl)c(F)cc2c1=O [Compound I-3, ethyl 7-chloro-1-(4-(4-chlorophenoxy)phenyl)-6-fluoro-4-oxy-1,4-dihydroquinoline-3-carboxylate]",20 mm,24 mm,8 mm,18 mm,IC50 [5]: > 10 µM; IC50 [6]: 4.5 µM; IC50 [7]: 7.5 µM
"CCOC(=O)c1cn(-c2ccc(Oc3ccccc3)cc2)c2cc(Cl)c(F)cc2c1=O [Compound I-4, ethyl 7-chloro-6-fluoro-4-oxy-1-(4-phenoxyphenyl)-1,4-dihydroquinoline-3-carboxylate]",19 mm,27 mm,9 mm,23 mm,–
"CCOC(=O)c1cn(-c2ccc(Oc3ccc(F)cc3)cc2)c2cc(Cl)c(F)cc2c1=O [Compound I-7, ethyl 7-chloro-6-fluoro-1-(4-(4-fluorophenoxy)phenyl)-4-oxy-1,4-dihydroquinoline-3-carboxylate]",15 mm,17 mm,7 mm,13 mm,–
"CCOC(=O)c1cn(-c2ccc(Oc3ccc(C)cc3)cc2)c2cc(Cl)c(F)cc2c1=O [Compound I-8, ethyl 7-chloro-6-fluoro-1-(4-(4-toluoxy)phenyl)-4-oxy-1,4-dihydroquinoline-3-carboxylate]",13 mm,12 mm,10 mm,12 mm,–
"CCOC(=O)c1cn(-c2ccc(Oc3ccc(C(C)(C)C)cc3)cc2)c2cc(Cl)c(F)cc2c1=O [Compound I-10, ethyl 7-chloro-6-fluoro-1-(4-(4-tert-butylphenoxy)phenyl)-4-oxy-1,4-dihydroquinoline-3-carboxylate]",20 mm,24 mm,14 mm,20 mm,–
"CCOC(=O)c1cn(-c2ccc(Oc3ccc(OC)cc3)cc2)c2cc(Cl)c(F)cc2c1=O [Compound I-11, ethyl 7-chloro-6-fluoro-1-(4-(4-methoxyphenoxy)phenyl)-4-oxy-1,4-dihydroquinoline-3-carboxylate]",11 mm,22 mm,7 mm,13 mm,–
"CCOC(=O)c1cn(-c2ccc(Oc3ccc(OC(F)(F)F)cc3)cc2)c2cc(Cl)c(F)cc2c1=O [Compound I-12, ethyl 7-chloro-6-fluoro-1-(4-(4-trifluoromethoxyphenoxy)phenyl)-4-oxy-1,4-dihydroquinoline-3-carboxylate]",24 mm,28 mm,8 mm,8 mm,IC50 [5]: > 10 µM; IC50 [6]: > 10 µM; IC50 [7]: 8.5 µM
"CCOC(=O)c1cn(-c2ccc(Oc3ccc(C(F)(F)F)cc3)cc2)c2cc(Cl)c(F)cc2c1=O [Compound I-14, ethyl 7-chloro-6-fluoro-1-(4-(4-trifluoromethylphenoxy)phenyl)-4-oxy-1,4-dihydroquinoline-3-carboxylate]",20 mm,27 mm,12 mm,15 mm,–
"CCOC(=O)c1cn(-c2ccc(Oc3ccc(Cl)c(Cl)c3)cc2)c2cc(Cl)c(F)cc2c1=O [Compound I-15, ethyl 7-chloro-1-(4-(3,4-dichlorophenoxy)phenyl)-6-fluoro-4-oxy-1,4-dihydroquinoline-3-carboxylate]",20 mm,21 mm,9 mm,18 mm,–
"CCOC(=O)c1cn(-c2ccc(Oc3ccc(C)c(C)c3)cc2)c2cc(Cl)c(F)cc2c1=O [Compound I-17, ethyl 7-chloro-1-(4-(3,4-dimethylphenoxyl)phenyl)-6-fluoro-4-oxy-1,4-dihydroquinoline-3-carboxylate]",20 mm,29 mm,7 mm,11 mm,–
"CCOC(=O)c1cn(Cc2ccc(Oc3ccc(Cl)cc3)cc2)c2cc(Cl)c(F)cc2c1=O [Compound I-20, ethyl 7-chloro-1-(4-(4-chlorophenoxy)benzyl)-6-fluoro-4-oxy-1,4-dihydroquinoline-3-carboxylate]",21 mm,24 mm,10 mm,12 mm,–
"CCOC(=O)c1cn(Cc2ccc(Oc3ccccc3C)cc2)c2cc(Cl)c(F)cc2c1=O [Compound I-22, ethyl 7-chloro-1-(4-(2-methylphenoxy)benzyl)-6-fluoro-4-oxy-1,4-dihydroquinoline-3-carboxylate]",23 mm,30 mm,14 mm,18 mm,–
"O=C(O)c1cn(-c2ccc(Oc3ccc(Cl)cc3)cc2)c2cc(Cl)c(F)cc2c1=O [Compound I-26, 7-chloro-1-(4-(4-chlorophenoxy)phenyl)-6-fluoro-4-oxy-1,4-dihydroquinoline-3-carboxylic acid]",29 mm,29 mm,15 mm,24 mm,IC50 [5]: > 10 µM; IC50 [6]: 5 µM; IC50 [7]: 5 µM
"COc1ccc(Oc2ccc(-n3cc(C(=O)O)c(=O)c4cc(F)c(Cl)cc43)cc2)cc1 [Compound I-28, 7-chloro-1-(4-(4-methoxyphenoxy)phenyl)-6-fluoro-4-oxy-1,4-dihydroquinoline-3-carboxylic acid]",29 mm,25 mm,11 mm,28 mm,–
"C[C@H]1COc2c(N3CCN(C)CC3)c(F)cc3c(=O)c(C(=O)O)cn1c23 [Control group, levofloxacin hydrochloride, reference compound]",–,–,–,–,"zone of inhibition at 5000 µg/mL ([1]; Staphylococcus aureus, control concentration 5 mg/mL): 26 mm; zone of inhibition at 5000 µg/mL ([2]; Escherichia coli, control concentration 5 mg/mL): 25 mm; zone of inhibition at 5000 µg/mL ([3]; Staphylococcus aureus, MRSA, control concentration 5 mg/mL): 12 mm; zone of inhibition at 5000 µg/mL ([4]; Bacillus subtilis, control concentration 5 mg/mL): 22 mm"
"CC(=O)O[C@H]1C(=O)[C@@]2(C)[C@H]([C@H](OC(=O)c3ccccc3)[C@]3(O)C[C@H](OC(=O)[C@H](O)[C@@H](NC(=O)c4ccccc4)c4ccccc4)C(C)=C1C3(C)C)[C@]1(OC(C)=O)CO[C@@H]1C[C@@H]2O [Paclitaxel, reference compound]",–,–,–,–,IC50 ([5]; Homo sapiens): 3.5 µM; IC50 ([6]; Homo sapiens): 2.5 µM; IC50 ([7]; Homo sapiens): 1.5 µM
